Among the data in article PMC9538320 (Protein Science : A Publication of the Protein Society, 2022) are Kd values, retold here.

This assay addresses SARS-CoV-2 protein 7a ectodomain (protein 7a ECD) (Severe acute respiratory syndrome coronavirus 2, UniProt P0DTC7). The experiment in a line: biochemical.

Each structure is given as a SMILES string.

Sequence of SARS-CoV-2 protein 7a ectodomain (protein 7a ECD) (P0DTC7 16-95): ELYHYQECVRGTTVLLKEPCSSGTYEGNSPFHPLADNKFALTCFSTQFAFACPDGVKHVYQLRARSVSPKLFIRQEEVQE

`C=CC1=C(C)C2=Cc3c(C=C)c(C)c4[n]3[Fe]([Cl])[n]3c(c(C)c(CCC(=O)O)c3=CC3=NC(=C4)C(C)=C3CCC(=O)O)=CC1=N2` [heme]: the Kd (as a rule, the concentration at which binding is half-saturated) came out at 469 ± 27 nM.
